Measured values published in ChEMBL document CHEMBL1201862, “PubChem BioAssay data set” (2004).
Blank lines part the entries; values can stand above or below the compound they belong to. Active and inactive are the calls of the source.

How the values were obtained:
Kallikrein-7 = Kallikrein-7 (Homo sapiens, UniProt P49862); assay: Fluorescence Intensity-based biochemical primary high throughput dose response assay to identify activators of kallikrein-7 (K7) zymogen.
[1] = target: Induced myeloid leukemia cell differentiation protein Mcl-1 (Homo sapiens, UniProt Q07820); assay type: functional
Caspase-6 = target: T1, Caspase-6 (Homo sapiens, UniProt P55212); assay: human caspase-6 inhibitors, dose response, biochemical, VEID-R110 fluorescence, cherry-pick (AID 720632)
T1 sequence (P55212 whole entry): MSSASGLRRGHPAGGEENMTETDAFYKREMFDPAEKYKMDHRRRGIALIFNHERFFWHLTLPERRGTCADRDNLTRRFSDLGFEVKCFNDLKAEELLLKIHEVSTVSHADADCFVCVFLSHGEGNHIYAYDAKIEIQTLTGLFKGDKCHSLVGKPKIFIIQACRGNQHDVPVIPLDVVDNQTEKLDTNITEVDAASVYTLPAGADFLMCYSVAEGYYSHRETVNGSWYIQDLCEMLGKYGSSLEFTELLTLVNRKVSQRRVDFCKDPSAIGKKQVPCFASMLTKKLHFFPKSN

[2] = target: T2, Corticotropin-releasing factor receptor 2/Corticotropin-releasing factor-binding protein (Homo sapiens, UniProt P24387+Q13324); assay: activators of CRF receptor 2 with binding protein – uHTS hits, confirmation (AID 602473); assay type: functional; conditions: read-out: EC50_Mean
T2 sequence (Q13324 whole entry): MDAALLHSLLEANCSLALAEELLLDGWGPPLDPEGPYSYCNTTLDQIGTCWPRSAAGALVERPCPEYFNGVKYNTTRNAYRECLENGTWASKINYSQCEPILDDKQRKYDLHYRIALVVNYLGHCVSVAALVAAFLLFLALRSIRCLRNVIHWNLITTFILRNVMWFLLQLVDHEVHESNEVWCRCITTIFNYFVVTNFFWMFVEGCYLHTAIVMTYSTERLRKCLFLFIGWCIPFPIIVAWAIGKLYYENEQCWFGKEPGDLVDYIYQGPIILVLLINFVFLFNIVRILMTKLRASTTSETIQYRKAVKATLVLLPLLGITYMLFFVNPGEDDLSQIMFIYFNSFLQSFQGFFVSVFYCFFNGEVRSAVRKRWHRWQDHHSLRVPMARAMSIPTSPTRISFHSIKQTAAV
T2 sequence (P24387 whole entry): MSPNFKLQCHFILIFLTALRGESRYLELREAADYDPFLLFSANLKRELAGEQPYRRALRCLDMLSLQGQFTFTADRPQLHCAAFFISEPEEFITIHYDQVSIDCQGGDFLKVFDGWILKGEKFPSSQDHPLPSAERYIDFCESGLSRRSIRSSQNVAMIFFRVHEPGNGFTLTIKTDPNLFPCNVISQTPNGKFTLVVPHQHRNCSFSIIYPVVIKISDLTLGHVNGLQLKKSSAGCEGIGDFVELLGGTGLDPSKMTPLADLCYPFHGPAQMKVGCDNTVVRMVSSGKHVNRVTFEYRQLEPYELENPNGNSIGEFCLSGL

[3] = target: Voltage-dependent T-type calcium channel subunit alpha-1H (Homo sapiens, UniProt O95180); assay type: functional;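 also: channel activity triggered by adding a high calcium stimulation buffer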
[4] = target: T3, 1-phosphatidylinositol 4,5-bisphosphate phosphodiesterase gamma-1 (Homo sapiens, UniProt P19174); assay: Counterscreen for inhibitors of phospholipase C isozymes (PLC-B3): Fluorescence-based biochemical high throughput dose response assay to identify inhibitors of phospholipase C isozymes (PLC-gamma1).
T3 sequence (P19174 whole entry): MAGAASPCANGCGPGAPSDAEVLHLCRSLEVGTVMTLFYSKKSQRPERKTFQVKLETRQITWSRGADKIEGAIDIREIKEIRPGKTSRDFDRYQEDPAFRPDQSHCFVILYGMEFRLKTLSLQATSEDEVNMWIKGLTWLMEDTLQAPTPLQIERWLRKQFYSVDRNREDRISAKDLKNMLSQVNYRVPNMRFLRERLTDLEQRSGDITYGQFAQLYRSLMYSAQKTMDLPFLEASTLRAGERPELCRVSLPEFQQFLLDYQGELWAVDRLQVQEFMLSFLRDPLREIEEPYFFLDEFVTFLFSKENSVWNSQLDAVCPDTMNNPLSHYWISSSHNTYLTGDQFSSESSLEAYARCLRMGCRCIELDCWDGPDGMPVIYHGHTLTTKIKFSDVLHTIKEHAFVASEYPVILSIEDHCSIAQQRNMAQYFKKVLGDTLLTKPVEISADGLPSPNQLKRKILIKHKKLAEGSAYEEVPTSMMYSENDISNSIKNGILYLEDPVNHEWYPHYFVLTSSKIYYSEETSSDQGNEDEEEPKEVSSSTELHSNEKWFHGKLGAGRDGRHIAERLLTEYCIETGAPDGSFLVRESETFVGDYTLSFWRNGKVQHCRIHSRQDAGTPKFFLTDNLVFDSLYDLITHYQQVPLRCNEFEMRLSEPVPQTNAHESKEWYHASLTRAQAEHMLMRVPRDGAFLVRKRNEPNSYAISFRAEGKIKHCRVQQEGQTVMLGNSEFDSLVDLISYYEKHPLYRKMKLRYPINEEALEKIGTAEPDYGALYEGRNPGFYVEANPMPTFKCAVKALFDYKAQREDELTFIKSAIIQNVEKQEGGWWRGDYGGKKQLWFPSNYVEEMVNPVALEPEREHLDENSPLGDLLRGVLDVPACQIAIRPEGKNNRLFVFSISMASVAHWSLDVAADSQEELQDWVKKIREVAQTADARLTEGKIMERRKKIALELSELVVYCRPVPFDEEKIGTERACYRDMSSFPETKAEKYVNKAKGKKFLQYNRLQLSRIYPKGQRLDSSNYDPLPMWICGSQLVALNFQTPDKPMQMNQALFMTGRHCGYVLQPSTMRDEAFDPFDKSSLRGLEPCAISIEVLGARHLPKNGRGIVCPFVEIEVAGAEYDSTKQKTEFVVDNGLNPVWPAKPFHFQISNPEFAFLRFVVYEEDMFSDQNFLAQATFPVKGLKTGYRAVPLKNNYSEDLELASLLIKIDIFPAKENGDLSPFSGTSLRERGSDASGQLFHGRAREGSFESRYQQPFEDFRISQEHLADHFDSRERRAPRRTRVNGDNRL

[5] = target: T4, 1-phosphatidylinositol 4,5-bisphosphate phosphodiesterase beta-3 (Homo sapiens, UniProt Q01970); assay: Fluorescence-based biochemical high throughput dose response assay to identify inhibitors of phospholipase C isozymes (PLC-B3).
T4 sequence (Q01970 whole entry): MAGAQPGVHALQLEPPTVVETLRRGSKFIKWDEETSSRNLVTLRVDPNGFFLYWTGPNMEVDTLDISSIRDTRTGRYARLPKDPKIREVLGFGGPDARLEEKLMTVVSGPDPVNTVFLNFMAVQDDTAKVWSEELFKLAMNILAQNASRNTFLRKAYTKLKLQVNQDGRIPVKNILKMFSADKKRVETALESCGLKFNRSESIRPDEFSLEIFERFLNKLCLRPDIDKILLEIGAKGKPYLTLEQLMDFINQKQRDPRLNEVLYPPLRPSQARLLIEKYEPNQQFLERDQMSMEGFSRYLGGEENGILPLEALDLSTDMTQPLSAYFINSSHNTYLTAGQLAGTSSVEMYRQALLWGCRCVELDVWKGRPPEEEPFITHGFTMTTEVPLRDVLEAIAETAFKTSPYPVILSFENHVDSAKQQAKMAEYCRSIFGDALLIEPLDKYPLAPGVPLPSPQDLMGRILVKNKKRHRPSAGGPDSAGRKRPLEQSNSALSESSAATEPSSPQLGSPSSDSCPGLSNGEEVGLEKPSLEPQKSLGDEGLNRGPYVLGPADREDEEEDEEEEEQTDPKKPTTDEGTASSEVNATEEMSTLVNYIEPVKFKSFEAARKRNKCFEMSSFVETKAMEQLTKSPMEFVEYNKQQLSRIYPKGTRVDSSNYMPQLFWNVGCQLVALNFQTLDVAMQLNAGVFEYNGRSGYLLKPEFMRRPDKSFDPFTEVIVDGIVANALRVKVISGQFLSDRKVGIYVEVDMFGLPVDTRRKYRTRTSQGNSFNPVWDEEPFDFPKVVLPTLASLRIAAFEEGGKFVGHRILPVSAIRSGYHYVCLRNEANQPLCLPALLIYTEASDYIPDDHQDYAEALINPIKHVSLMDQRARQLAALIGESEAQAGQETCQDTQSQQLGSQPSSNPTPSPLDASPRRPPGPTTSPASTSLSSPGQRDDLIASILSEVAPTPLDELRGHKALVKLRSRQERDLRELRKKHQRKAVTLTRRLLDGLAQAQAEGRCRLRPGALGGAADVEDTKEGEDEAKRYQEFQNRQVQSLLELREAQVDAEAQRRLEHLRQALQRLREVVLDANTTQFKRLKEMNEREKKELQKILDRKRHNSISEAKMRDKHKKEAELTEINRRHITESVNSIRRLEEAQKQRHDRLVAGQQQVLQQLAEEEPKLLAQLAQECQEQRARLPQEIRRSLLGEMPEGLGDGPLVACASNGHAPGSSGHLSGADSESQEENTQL

[6] = target: T2, Corticotropin-releasing factor receptor 2/Corticotropin-releasing factor-binding protein; assay: Dose Response confirmation of uHTS hits for small molecule antagonists of the CRF-binding protein and CRF-R2 receptor complex.; assay type: functional; conditions: read-out: IC50_Mean

Kallikrein-7, sequence (P49862 whole entry): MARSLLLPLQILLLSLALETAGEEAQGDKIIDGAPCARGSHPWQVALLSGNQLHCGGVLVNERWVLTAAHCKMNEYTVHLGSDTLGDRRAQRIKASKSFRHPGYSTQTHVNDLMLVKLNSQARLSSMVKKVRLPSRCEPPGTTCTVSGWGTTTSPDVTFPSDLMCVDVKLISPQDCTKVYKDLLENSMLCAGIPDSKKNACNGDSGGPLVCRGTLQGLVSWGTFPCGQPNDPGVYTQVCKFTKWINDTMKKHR
Induced myeloid leukemia cell differentiation protein Mcl-1, sequence (Q07820 whole entry): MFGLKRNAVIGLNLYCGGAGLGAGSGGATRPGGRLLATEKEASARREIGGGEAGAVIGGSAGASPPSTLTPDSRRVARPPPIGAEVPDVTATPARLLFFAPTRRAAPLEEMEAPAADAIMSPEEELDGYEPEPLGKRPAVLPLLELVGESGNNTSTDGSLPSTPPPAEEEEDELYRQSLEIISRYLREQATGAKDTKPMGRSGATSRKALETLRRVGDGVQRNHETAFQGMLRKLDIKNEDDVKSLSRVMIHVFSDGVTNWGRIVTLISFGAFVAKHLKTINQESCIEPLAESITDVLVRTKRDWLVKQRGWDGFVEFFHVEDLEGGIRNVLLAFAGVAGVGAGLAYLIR
Voltage-dependent T-type calcium channel subunit alpha-1H, sequence (O95180 whole entry): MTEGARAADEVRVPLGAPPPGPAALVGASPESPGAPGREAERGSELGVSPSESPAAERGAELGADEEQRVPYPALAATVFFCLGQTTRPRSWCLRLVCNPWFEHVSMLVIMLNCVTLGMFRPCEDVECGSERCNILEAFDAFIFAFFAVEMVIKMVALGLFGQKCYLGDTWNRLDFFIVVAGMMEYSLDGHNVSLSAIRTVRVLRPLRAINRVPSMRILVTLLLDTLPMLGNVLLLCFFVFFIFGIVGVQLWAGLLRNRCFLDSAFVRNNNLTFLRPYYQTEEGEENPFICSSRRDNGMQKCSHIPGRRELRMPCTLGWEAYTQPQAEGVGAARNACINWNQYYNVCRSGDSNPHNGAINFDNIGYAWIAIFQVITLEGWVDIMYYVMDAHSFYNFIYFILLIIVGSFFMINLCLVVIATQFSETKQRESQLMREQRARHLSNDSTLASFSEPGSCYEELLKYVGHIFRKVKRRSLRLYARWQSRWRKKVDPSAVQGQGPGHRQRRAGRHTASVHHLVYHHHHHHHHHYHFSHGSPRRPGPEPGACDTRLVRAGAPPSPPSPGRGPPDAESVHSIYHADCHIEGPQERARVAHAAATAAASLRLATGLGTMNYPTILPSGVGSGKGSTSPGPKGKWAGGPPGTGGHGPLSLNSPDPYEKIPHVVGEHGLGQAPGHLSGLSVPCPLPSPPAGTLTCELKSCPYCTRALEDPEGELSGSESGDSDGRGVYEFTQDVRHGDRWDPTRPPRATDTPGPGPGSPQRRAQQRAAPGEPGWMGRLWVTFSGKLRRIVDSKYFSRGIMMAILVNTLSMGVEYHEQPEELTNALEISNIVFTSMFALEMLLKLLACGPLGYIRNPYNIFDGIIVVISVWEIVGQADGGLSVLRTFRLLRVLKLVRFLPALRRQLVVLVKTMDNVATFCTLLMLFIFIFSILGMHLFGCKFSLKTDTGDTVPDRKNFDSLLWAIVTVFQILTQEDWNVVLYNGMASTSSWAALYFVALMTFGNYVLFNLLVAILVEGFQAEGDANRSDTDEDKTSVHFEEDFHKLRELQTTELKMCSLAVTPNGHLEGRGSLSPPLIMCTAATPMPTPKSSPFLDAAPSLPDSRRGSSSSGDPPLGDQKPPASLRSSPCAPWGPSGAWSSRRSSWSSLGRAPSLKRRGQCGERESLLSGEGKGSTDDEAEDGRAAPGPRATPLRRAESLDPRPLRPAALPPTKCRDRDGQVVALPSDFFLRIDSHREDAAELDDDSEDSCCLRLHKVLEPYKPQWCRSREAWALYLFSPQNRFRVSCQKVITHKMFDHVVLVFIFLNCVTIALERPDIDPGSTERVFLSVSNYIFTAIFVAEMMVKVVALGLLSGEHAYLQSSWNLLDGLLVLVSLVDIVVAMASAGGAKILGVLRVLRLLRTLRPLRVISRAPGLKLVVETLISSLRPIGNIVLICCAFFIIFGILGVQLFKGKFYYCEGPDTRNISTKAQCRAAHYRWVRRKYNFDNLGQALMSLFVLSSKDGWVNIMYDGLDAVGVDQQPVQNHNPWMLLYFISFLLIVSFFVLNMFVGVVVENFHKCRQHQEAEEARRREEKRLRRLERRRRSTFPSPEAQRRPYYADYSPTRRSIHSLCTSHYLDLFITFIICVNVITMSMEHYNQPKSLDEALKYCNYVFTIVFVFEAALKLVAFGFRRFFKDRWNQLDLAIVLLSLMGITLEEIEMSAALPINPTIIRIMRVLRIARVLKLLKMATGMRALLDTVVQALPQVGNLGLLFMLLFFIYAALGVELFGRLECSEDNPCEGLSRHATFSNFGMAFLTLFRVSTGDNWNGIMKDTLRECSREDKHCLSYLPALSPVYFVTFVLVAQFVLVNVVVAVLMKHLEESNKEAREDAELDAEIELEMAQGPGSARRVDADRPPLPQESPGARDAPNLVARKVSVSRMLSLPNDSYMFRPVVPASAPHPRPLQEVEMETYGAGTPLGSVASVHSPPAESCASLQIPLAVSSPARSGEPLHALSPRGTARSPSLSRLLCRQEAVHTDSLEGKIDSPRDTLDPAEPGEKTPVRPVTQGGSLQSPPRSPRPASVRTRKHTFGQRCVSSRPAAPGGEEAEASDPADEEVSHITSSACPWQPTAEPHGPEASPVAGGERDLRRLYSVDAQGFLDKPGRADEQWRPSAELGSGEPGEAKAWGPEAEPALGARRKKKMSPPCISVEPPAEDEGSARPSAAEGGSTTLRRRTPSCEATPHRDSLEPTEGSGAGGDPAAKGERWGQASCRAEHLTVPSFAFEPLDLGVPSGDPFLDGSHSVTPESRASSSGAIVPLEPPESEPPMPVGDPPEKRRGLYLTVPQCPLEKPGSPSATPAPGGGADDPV

EC50 (Kallikrein-7): 6.97 µM (active) | IC50 [1]: 5.12 µM (active)
Compound: Cc1ccc(-c2cc(C(=O)OCC(=O)N(C)C3CCS(=O)(=O)C3)c3ccccc3n2)o1 (stereo not given)

AC50 (Caspase-6): 9.2 µM (active)
Compound: O=C(CSc1ccsc1[N+](=O)[O-])NCc1ccco1

EC50 (Kallikrein-7): 7.57 µM (active)
Compound: COc1ccccc1CC(=O)Nc1ccc(NC(=O)c2cccs2)cc1

EC50 [2]: > 53 µM (inactive) | EC50 [3]: 5.16 µM (active) | IC50 [4]: > 123 µM (inactive) | IC50 [5]: > 123 µM (inactive) | IC50 [6]: > 47.1 µM (inactive)
Compound: O=S(=O)(c1ccccc1)c1cnn(-c2ccccc2)c1-c1ccc(F)cc1

EC50 (Kallikrein-7): > 69.5 µM (inactive)
Compound: CC(=O)Nc1ccc(-c2nc3ccc(NC(C)=O)cc3o2)cc1
